Assay results as given in patent US10526343B2, “Heterocyclic systems and pharmaceutical applications thereof” (University of Sharjah, priority 2018, dated 2020).
In brackets after ≈: the same amount, converted by molar mass.

What was measured:
S. aureus (ATCC 25923) = test: MIC by broth microdilution; assay type: cell-based; conditions: Staphylococcus aureus, ATCC25923
Protocol: (§1) Bacteria of the genus Staphylococcus were selected for MIC investigation due to its clinical importance. Compounds showing activity against S. aureus (ATCC 25923) were tested against 10 multidrug-resistant strains of Staphylococcus species, including: clinical isolates methicillin-resistant Staphylococcus aureus (MRSA) strains MRSA-1, MRSA-2, and MRSA-3, and environmental isolates S. saprophyticus (strains UDH-1, UDH-2, UDH-3 and UDH-4), S. haemolyticus (strains UDH-6 and UDH-7), and S. epidermidis strain UDH-5.
(§2) A broth microdilution method was used to measure MIC according to the Clinical and Laboratory Standards Institute guidelines. Two-fold serial dilutions of the test compound (8 concentrations ranged between 100-0.78 μg/mL) were tested. Two reference antibiotics were used as quality controls (ciprofloxacin and amikacin). In each experiment, solvent (DMSO) was used as a negative control, un-treated control (composing of bacteria in Mueller-Hinton broth) was used as a growth control, blank (culture media alone) was used as sterility control. The 96-well microplate with the test compounds was incubated for 20 hours at 37° C. Turbidity in wells indicated bacterial growth. […] For the definite determination of MIC, CellTiter-Blue® Cell Viability Assay (Promega, USA) was used (as above). The MIC was defined as the lowest compound concentration that prevented the color change of the Cell Viability solution (absence of bacterial growth; thus, suspension remained blue in color). For the definite determination of MIC, CellTiter-Blue® Cell Viability Assay (Promega, USA) was used (as above). To each well of the 96-well microplate, 20 μL of the Cell Viability Assay solution was added to the overnight (20 hours culture) and incubated at 37° C. for 4 hours. After the end of the incubation, pink and blue colors were used to differentiate viable from dead bacterial suspensions, respectively. The MIC was defined as the lowest compound concentration that prevented the color change.

[1] = system: UDH-3 (environmental isolate, S. saprophyticus); test: MIC by broth microdilution; assay type: cell-based; conditions: for MIC: Staphylococcus saprophyticus, environmental isolate
Protocol: as §1
(§3) All these strains were resistant to at least three antibiotics from different classes, as confirmed by a disk diffusion assay.
as §2

[2] = system: UDH-1 (environmental isolate, S. saprophyticus); test: MIC by broth microdilution; assay type: cell-based; conditions: for MIC: Staphylococcus saprophyticus, environmental isolate
Protocol: as §1, §3, §2

[3] = system: UDH-7 (environmental isolate, S. haemolyticus); test: MIC by broth microdilution; assay type: cell-based; conditions: Staphylococcus haemolyticus; environmental isolate
Protocol: as §1, §3, §2

[4] = system: UDH-6 (environmental isolate, S. haemolyticus); test: MIC by broth microdilution; assay type: cell-based; conditions: Staphylococcus haemolyticus; environmental isolate
Protocol: as §1, §3, §2

[5] = system: UDH-4 (environmental isolate, S. saprophyticus); test: MIC by broth microdilution; assay type: cell-based; conditions: Staphylococcus saprophyticus
Protocol: as §1, §3, §2

[6] = system: UDH-5 (environmental isolate, S. epidermidis); test: MIC by broth microdilution; assay type: cell-based; conditions: Staphylococcus epidermidis
Protocol: as §1, §3, §2

[7] = system: UDH-2 (environmental isolate, S. saprophyticus); test: MIC by broth microdilution; assay type: cell-based; conditions: Staphylococcus saprophyticus
Protocol: as §1, §3, §2

MRSA-1 = test: Time-kill study; assay type: cell-based, Staphylococcus aureus
Protocol: Time-kill study: Compound 1o was tested for the time required to kill the bacterial strain MRSA-1. A time-kill assay was performed by the broth micro-dilution method in accordance with the CLSI guidelines. Inoculum suspensions with approximately 5×10^5 CFU/mL of exponentially growing bacterial cells were incubated in each well of a 96-well plate. […] Aliquots of 20 μL were removed from the inoculum culture after timed intervals of incubation (i.e. 0, 30 minutes, 1, 2, 4, 6, 8, and 24 hours), and serial 10-fold dilutions were prepared in 0.85% sodium chloride solution. Then, 10-100 μL of each dilution (as appropriate) were spread on the surface of Mueller-Hinton agar plates and incubated at 37° C. for 24 hours. Plate count technique was used to determine the number of viable cells for each time point. The experiments were performed in triplicate. Meropenem and ciprofloxacin were used as quality control antibiotics.

[8] = system: MRSA-1 (clinical isolate, methicillin-resistant Staphylococcus aureus); test: MIC by broth microdilution; assay type: cell-based; conditions: Staphylococcus aureus, MRSA; clinical isolate
Protocol: (§4) Bacteria of the genus Staphylococcus were selected for MIC investigation due to its clinical importance.
as §2, with “Two reference antibiotics were used as quality controls (ciprofloxacin and amikacin).” left out

[9] = system: MRSA-3 (clinical isolate, methicillin-resistant Staphylococcus aureus); test: MIC by broth microdilution; assay type: cell-based
Protocol: as §4
as §2, with “Two reference antibiotics were used as quality controls (ciprofloxacin and amikacin).” left out

[10] = system: MRSA-2 (clinical isolate, methicillin-resistant Staphylococcus aureus); test: MIC by broth microdilution; assay type: cell-based
Protocol: as §4
as §2, with “Two reference antibiotics were used as quality controls (ciprofloxacin and amikacin).” left out

[11] = system: Enterococcus faecalis (ATCC 29212); test: Cell viability assay (resazurin) screening for antibacterial activity; assay type: cell-based; design: key: Positive: A positive result indicates antibacterial activity expressed as growth inhibition; Negative: a negative result indicates no antibacterial activity expressed as bacterial growth at the tested concentration; conditions: single high concentration of 1 mg/mL
[12] = system: Bacillus subtilis (environmental isolate); test: as above; assay type: cell-based; design: key: Positive: A positive result indicates antibacterial activity expressed as growth inhibition; Negative: a negative result indicates no antibacterial activity expressed as bacterial growth at the tested concentration; conditions: single high concentration of 1 mg/mL
[13] = system: Pseudomonas aeruginosa (ATCC 27853); test: as above; assay type: cell-based; design: key: Positive: A positive result indicates antibacterial activity expressed as growth inhibition; Negative: a negative result indicates no antibacterial activity expressed as bacterial growth at the tested concentration; conditions: single high concentration of 1 mg/mL
[14] = system: Escherichia coli (ATCC 25922); test: as above; assay type: cell-based; design: key: Positive: A positive result indicates antibacterial activity expressed as growth inhibition; Negative: a negative result indicates no antibacterial activity expressed as bacterial growth at the tested concentration; conditions: single high concentration of 1 mg/mL
[15] = system: Staphylococcus aureus (ATCC 25923); test: as above; assay type: cell-based; design: key: Positive: A positive result indicates antibacterial activity expressed as growth inhibition; Negative: a negative result indicates no antibacterial activity expressed as bacterial growth at the tested concentration; conditions: single high concentration of 1 mg/mL

| MIC (S. aureus (ATCC 25923)) | MIC [1] | MIC [2] | MIC [5] | MIC [6] | MIC [7] | MIC [8] | MIC [9] | MIC [10] | Compound | MIC [3] | MIC [4] | antibacterial activity, Enterococcus faecalis [11] | antibacterial activity, Bacillus subtilis [12] | antibacterial activity, Pseudomonas aeruginosa [13] | antibacterial activity, Escherichia coli [14] | antibacterial activity, Staphylococcus aureus [15] | further results |
| --- | --- | --- | --- | --- | --- | --- | --- | --- | --- | --- | --- | --- | --- | --- | --- | --- | --- |
| – | – | – | – | – | – | – | – | – | C[C@@H](O)[C@H]1C(=O)N2C(C(=O)O)=C(S[C@@H]3CN[C@H](C(=O)N(C)C)C3)[C@H](C)[C@H]12 [meropenem, reference compound] | – | – | – | – | – | – | – | time of exposure at which killing was achieved (MRSA-1; 8 μg/mL): 8 h; time of exposure at which killing was achieved (MRSA-1; 16 μg/mL): 6 h; time of exposure at which killing was achieved (MRSA-1; 2-4 μg/mL): 24 h; time of exposure at which killing was achieved (complete inhibition of bacterial growth) (MRSA-1; 32-64 μg/mL): 4 h |
| 6.25 µg/mL | 3.12 µg/mL | 6.25 µg/mL | 6.25 µg/mL | 1.56 µg/mL | 6.25 µg/mL | 6.25 µg/mL | 3.12 µg/mL | 6.25 µg/mL | CCN(CC)c1ccc2c(c1)OCC(CC(=O)OC)[n+]1c-2c(NC(C)(C)C)n2c(-c3ccc(OC)cc3)c(-c3ccc(OC)cc3)sc21 (centres unmarked) [Compound 1h] | 12.5 µg/mL | 6.25 µg/mL | Positive | Positive | Negative | Negative | Positive | times lower than MIC of ciprofloxacin ([1]; UDH-3): approximately 20 times; times lower than MIC of ciprofloxacin ([2]; UDH-1): approximately 10 times |
| 12.5 µg/mL | 25 µg/mL | 12.5 µg/mL | 12.5 µg/mL | 6.25 µg/mL | 12.5 µg/mL | 12.5 µg/mL | 12.5 µg/mL | 12.5 µg/mL | COC(=O)CC1COc2c(cc3c4c2CCCN4CCC3)-c2c(N)n3c(-c4ccc(F)cc4)c(C)sc3[n+]21 (centres unmarked) [Compound 2b] | 25 µg/mL | 25 µg/mL | Positive | Positive | Negative | Negative | Positive | – |

| Compound | MIC (S. aureus (ATCC 25923)) | MIC [1] | MIC [2] | MIC [5] | MIC [6] | MIC [7] | MIC [8] | MIC [9] | MIC [10] | MIC [3] | MIC [4] | antibacterial activity, Enterococcus faecalis [11] | antibacterial activity, Bacillus subtilis [12] | antibacterial activity, Pseudomonas aeruginosa [13] | antibacterial activity, Escherichia coli [14] | antibacterial activity, Staphylococcus aureus [15] | further results |
| --- | --- | --- | --- | --- | --- | --- | --- | --- | --- | --- | --- | --- | --- | --- | --- | --- | --- |
| O=C(O)c1cn(C2CC2)c2cc(N3CCNCC3)c(F)cc2c1=O [Ciprofloxacin, ciprofloxacin, reference compound] | 0.5 µg/mL (≈ 1.51 µM) | 64 µg/mL (≈ 193 µM) | 64 µg/mL (≈ 193 µM) | 64 µg/mL (≈ 193 µM) | < 0.25 µg/mL | 64 µg/mL (≈ 193 µM) | – | – | – | 64 µg/mL (≈ 193 µM) | 64 µg/mL (≈ 193 µM) | – | – | – | – | – | time of exposure at which killing was achieved (complete growth inhibition) (MRSA-1; 32-256 μg/mL): 24 h |
